Experiments:
[1] = test system: Platelet-derived growth factor receptor alpha (Homo sapiens), P16234 [D842V]; assay: Inhibition of human PDGFRalpha D842V mutant assessed as residual activity at 1 uM using Poly(Ala,Glu,Lys,Tyr)6:2:5:1 as substrate in presence of 33P-ATP by ProQinase assay relative to control
[2] = molecular target: MAP kinase-activated protein kinase 5 (Homo sapiens) (UniProt Q8IW41); assay: Inhibition of human MAPKAPK5 assessed as residual activity at 1 uM using RBER-CHKtide as substrate in presence of 33P-ATP by ProQinase assay relative to control
[3] = molecular target: Mitogen-activated protein kinase kinase kinase kinase 5 (Homo sapiens) (UniProt Q9Y4K4); assay: Inhibition of MAP4K5 (unknown origin) assessed as remaining activity at 1 uM by Kinome scan method relative to control
[4] = test system: Tyrosine-protein kinase ABL1 (Homo sapiens), P00519 [H396P]; assay: Inhibition of ABL1 H396P mutant (unknown origin) assessed as remaining activity at 1 uM by Kinome scan method relative to control
[5] = molecular target: Receptor tyrosine-protein kinase erbB-2 (Homo sapiens) (UniProt P04626); assay: Inhibition of ERBB2 (unknown origin) assessed as remaining activity at 1 uM by Kinome scan method relative to control
Chain of Receptor tyrosine-protein kinase erbB-2 (Homo sapiens) (P04626 whole entry): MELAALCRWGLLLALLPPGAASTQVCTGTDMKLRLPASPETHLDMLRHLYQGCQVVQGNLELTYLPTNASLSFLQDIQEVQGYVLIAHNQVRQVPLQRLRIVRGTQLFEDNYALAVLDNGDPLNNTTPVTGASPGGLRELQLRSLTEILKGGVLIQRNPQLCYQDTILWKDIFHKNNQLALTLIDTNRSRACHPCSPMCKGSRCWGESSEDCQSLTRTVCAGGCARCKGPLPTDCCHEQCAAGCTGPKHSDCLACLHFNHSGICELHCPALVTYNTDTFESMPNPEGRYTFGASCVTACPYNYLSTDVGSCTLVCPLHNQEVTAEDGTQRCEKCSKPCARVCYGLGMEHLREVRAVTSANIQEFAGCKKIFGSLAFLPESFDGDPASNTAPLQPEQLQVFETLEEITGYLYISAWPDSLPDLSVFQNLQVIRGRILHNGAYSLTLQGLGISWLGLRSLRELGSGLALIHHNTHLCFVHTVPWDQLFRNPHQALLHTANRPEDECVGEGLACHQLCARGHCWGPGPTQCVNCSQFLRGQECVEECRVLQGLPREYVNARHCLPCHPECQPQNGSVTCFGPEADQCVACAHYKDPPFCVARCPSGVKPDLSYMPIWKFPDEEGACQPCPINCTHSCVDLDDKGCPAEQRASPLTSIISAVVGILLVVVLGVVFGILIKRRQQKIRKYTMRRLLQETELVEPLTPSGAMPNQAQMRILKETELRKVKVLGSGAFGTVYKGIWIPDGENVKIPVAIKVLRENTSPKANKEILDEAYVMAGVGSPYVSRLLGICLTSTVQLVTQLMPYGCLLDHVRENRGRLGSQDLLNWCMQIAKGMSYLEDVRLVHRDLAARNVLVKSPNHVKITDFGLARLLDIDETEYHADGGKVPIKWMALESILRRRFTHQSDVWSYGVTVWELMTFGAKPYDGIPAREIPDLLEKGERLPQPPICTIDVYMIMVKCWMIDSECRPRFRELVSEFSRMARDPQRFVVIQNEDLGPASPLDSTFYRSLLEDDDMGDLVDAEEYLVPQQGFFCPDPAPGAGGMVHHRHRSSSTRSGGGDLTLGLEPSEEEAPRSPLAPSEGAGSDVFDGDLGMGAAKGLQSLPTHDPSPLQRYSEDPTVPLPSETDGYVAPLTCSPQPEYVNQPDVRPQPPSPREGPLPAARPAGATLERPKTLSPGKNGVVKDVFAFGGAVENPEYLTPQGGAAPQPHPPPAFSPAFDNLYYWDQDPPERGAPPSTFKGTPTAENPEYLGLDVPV

[6] = molecular target: Serine/threonine-protein kinase Nek4 (Homo sapiens) (UniProt P51957); assay: Inhibition of human NEK4 assessed as residual activity at 1 uM using MBP as substrate in presence of 33P-ATP by ProQinase assay relative to control
[7] = test system: Phosphatidylinositol 4,5-bisphosphate 3-kinase catalytic subunit alpha isoform (Homo sapiens), P42336 [Q546K]; assay: Inhibition of PIK3CA Q546K mutant (unknown origin) assessed as remaining activity at 1 uM by Kinome scan method relative to control
[8] = test system: Dual specificity mitogen-activated protein kinase kinase 6 (Homo sapiens), P52564 [S207D,T211D]; assay: Inhibition of human MKK6 S207D/T211D double mutant assessed as residual activity at 1 uM using p38-alpha KA as substrate in presence of 33P-ATP by ProQinase assay relative to control
[9] = molecular target: Receptor-interacting serine/threonine-protein kinase 2 (Homo sapiens) (UniProt O43353); assay: Inhibition of human RIPK2 assessed as residual activity at 1 uM using RBER-CHKtide as substrate in presence of 33P-ATP by ProQinase assay relative to control
[10] = molecular target: Epidermal growth factor receptor (Homo sapiens) (UniProt P00533); assay: Inhibition of EGFR (unknown origin) assessed as remaining activity at 1 uM by Kinome scan method relative to control
[11] = test system: Receptor-type tyrosine-protein kinase FLT3 (Homo sapiens), P36888 [D835Y]; assay: Inhibition of FLT3 D835Y mutant (unknown origin) assessed as remaining activity at 1 uM by Kinome scan method relative to control
[12] = molecular target: Phosphorylase b kinase gamma catalytic chain, skeletal muscle/heart isoform (Homo sapiens) (UniProt Q16816); assay: Inhibition of human PHKG1 assessed as residual activity at 1 uM using 3xChocktide-PKC as substrate in presence of 33P-ATP by ProQinase assay relative to control
Chain of Phosphorylase b kinase gamma catalytic chain, skeletal muscle/heart isoform (Homo sapiens) (Q16816 whole entry, looked up, canonical isoform): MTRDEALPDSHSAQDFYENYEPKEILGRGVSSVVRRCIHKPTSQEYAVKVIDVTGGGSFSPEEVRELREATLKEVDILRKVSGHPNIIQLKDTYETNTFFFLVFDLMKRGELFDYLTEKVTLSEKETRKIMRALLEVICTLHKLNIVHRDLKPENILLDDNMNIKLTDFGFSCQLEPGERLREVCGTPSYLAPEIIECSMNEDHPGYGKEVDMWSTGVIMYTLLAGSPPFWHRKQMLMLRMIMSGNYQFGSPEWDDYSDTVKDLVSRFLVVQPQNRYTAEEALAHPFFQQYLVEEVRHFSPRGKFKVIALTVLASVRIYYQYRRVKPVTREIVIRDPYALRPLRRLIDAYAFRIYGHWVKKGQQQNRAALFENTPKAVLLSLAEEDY

[13] = molecular target: Serine/threonine-protein kinase 24 (Homo sapiens) (UniProt Q9Y6E0); assay: Inhibition of human MST3 assessed as residual activity at 1 uM using casein as substrate in presence of 33P-ATP by ProQinase assay relative to control
[14] = molecular target: Receptor tyrosine-protein kinase erbB-2 (Homo sapiens) (UniProt P04626); assay: Inhibition of human ERBB2 assessed as residual activity at 1 uM using polyEY as substrate in presence of 33P-ATP by ProQinase assay relative to control
[15] = molecular target: STE20/SPS1-related proline-alanine-rich protein kinase (Homo sapiens) (UniProt Q9UEW8); assay: Inhibition of human STK39 assessed as residual activity at 1 uM using RBER-CDC25tide as substrate in presence of 33P-ATP by ProQinase assay relative to control
[16] = molecular target: G protein-coupled receptor kinase 4 (Homo sapiens) (UniProt P32298); assay: Inhibition of GRK4 (unknown origin) assessed as remaining activity at 1 uM by Kinome scan method relative to control
Chain of G protein-coupled receptor kinase 4 (Homo sapiens) (P32298 whole entry, looked up, canonical isoform): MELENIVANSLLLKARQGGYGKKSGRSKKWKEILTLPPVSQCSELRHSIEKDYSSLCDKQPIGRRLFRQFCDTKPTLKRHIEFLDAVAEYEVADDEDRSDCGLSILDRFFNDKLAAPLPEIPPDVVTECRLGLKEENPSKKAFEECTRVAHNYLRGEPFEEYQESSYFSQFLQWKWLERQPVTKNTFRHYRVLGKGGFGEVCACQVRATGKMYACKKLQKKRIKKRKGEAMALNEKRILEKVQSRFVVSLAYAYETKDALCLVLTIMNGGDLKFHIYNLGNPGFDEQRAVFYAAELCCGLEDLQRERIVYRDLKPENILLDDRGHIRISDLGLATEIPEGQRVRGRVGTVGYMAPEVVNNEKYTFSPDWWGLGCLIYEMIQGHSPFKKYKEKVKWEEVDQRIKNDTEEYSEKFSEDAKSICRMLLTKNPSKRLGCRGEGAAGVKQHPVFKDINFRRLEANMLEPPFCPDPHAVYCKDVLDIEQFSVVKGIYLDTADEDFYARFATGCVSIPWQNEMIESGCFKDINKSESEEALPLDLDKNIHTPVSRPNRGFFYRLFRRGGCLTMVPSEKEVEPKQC

[17] = molecular target: Casein kinase I isoform epsilon (Homo sapiens) (UniProt P49674); assay: Inhibition of CSNK1E (unknown origin) assessed as remaining activity at 1 uM by Kinome scan method relative to control
[18] = molecular target: Citron Rho-interacting kinase (Homo sapiens) (UniProt O14578); assay: Inhibition of CIT (unknown origin) assessed as remaining activity at 1 uM by Kinome scan method relative to control
[19] = test system: Epidermal growth factor receptor (Homo sapiens), P00533 [L861Q]; assay: Inhibition of human EGFR L861Q mutant assessed as residual activity at 1 uM using PolyEY as substrate in presence of 33P-ATP by ProQinase assay relative to control
[20] = test system: Mast/stem cell growth factor receptor Kit (Homo sapiens), P10721 [V559D,T670I]; assay: Inhibition of KIT V559D/T670I mutant (unknown origin) assessed as remaining activity at 1 uM by Kinome scan method relative to control
[21] = molecular target: Serine/threonine-protein kinase Chk2 (Homo sapiens) (UniProt O96017); assay: Inhibition of human CHK2 assessed as residual activity at 1 uM using bio-4xCHKT as substrate in presence of 33P-ATP by ProQinase assay relative to control
[22] = molecular target: Ribosomal protein S6 kinase alpha-6 (Homo sapiens) (UniProt Q9UK32); assay: Inhibition of C-terminal kinase domain RPS6KA6 (unknown origin) assessed as remaining activity at 1 uM by Kinome scan method relative to control
Chain of Ribosomal protein S6 kinase alpha-6 (Homo sapiens) (Q9UK32 whole entry, the tested form may be a part): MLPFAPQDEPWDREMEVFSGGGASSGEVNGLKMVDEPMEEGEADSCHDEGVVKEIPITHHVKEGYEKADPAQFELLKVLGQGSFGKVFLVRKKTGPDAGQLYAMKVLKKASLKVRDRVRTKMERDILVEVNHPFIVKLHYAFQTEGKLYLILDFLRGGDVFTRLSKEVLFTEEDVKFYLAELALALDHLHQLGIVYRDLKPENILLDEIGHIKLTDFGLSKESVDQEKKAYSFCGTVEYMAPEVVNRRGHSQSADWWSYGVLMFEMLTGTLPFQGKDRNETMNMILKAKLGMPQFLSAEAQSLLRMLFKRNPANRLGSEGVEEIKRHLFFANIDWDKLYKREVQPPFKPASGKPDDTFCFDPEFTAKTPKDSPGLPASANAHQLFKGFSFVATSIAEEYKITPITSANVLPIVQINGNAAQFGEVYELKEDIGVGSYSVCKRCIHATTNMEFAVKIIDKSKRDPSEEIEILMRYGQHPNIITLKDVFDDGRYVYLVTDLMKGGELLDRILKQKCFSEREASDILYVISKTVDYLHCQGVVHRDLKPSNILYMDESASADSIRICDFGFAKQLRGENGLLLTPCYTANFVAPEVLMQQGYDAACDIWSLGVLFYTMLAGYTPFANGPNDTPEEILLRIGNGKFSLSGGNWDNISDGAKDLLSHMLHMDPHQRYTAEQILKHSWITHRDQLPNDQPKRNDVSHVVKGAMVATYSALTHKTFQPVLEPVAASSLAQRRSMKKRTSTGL

[23] = molecular target: Ephrin type-A receptor 8 (Homo sapiens) (UniProt P29322); assay: Inhibition of human EPHA8 assessed as residual activity at 1 uM using polyEy as substrate in presence of 33P-ATP by ProQinase assay relative to control
[24] = molecular target: Macrophage colony-stimulating factor 1 receptor (Homo sapiens) (UniProt P07333); assay: Inhibition of CSF1R (unknown origin) assessed as remaining activity at 1 uM by Kinome scan method relative to control
[25] = molecular target: Calcium/calmodulin-dependent protein kinase kinase 1 (Homo sapiens) (UniProt Q8N5S9); assay: Inhibition of CAMKK1 (unknown origin) assessed as remaining activity at 1 uM by Kinome scan method relative to control
Chain of Calcium/calmodulin-dependent protein kinase kinase 1 (Homo sapiens) (Q8N5S9 whole entry, looked up): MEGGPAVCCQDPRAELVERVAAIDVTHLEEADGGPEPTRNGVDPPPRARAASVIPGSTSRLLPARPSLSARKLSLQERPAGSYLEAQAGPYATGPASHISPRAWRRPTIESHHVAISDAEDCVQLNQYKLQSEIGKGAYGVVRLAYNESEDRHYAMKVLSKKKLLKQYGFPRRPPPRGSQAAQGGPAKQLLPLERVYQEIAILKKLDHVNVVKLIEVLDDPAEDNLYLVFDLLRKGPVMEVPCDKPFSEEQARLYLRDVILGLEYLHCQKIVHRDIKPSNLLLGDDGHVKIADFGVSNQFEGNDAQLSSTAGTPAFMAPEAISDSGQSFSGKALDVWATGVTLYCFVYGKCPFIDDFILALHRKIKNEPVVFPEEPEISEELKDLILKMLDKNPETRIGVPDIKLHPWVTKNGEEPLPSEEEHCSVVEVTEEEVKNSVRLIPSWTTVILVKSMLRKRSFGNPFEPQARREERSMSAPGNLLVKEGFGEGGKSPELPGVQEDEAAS

[26] = molecular target: Ephrin type-B receptor 3 (Homo sapiens) (UniProt P54753); assay: Inhibition of EPHB3 (unknown origin) assessed as remaining activity at 1 uM by Kinome scan method relative to control
[27] = molecular target: Phosphatidylinositol 4-phosphate 3-kinase C2 domain-containing subunit beta (Homo sapiens) (UniProt O00750); assay: Inhibition of PIK3C2B (unknown origin) assessed as remaining activity at 1 uM by Kinome scan method relative to control
Chain of Phosphatidylinositol 4-phosphate 3-kinase C2 domain-containing subunit beta (Homo sapiens) (O00750 whole entry, the tested form may be a part): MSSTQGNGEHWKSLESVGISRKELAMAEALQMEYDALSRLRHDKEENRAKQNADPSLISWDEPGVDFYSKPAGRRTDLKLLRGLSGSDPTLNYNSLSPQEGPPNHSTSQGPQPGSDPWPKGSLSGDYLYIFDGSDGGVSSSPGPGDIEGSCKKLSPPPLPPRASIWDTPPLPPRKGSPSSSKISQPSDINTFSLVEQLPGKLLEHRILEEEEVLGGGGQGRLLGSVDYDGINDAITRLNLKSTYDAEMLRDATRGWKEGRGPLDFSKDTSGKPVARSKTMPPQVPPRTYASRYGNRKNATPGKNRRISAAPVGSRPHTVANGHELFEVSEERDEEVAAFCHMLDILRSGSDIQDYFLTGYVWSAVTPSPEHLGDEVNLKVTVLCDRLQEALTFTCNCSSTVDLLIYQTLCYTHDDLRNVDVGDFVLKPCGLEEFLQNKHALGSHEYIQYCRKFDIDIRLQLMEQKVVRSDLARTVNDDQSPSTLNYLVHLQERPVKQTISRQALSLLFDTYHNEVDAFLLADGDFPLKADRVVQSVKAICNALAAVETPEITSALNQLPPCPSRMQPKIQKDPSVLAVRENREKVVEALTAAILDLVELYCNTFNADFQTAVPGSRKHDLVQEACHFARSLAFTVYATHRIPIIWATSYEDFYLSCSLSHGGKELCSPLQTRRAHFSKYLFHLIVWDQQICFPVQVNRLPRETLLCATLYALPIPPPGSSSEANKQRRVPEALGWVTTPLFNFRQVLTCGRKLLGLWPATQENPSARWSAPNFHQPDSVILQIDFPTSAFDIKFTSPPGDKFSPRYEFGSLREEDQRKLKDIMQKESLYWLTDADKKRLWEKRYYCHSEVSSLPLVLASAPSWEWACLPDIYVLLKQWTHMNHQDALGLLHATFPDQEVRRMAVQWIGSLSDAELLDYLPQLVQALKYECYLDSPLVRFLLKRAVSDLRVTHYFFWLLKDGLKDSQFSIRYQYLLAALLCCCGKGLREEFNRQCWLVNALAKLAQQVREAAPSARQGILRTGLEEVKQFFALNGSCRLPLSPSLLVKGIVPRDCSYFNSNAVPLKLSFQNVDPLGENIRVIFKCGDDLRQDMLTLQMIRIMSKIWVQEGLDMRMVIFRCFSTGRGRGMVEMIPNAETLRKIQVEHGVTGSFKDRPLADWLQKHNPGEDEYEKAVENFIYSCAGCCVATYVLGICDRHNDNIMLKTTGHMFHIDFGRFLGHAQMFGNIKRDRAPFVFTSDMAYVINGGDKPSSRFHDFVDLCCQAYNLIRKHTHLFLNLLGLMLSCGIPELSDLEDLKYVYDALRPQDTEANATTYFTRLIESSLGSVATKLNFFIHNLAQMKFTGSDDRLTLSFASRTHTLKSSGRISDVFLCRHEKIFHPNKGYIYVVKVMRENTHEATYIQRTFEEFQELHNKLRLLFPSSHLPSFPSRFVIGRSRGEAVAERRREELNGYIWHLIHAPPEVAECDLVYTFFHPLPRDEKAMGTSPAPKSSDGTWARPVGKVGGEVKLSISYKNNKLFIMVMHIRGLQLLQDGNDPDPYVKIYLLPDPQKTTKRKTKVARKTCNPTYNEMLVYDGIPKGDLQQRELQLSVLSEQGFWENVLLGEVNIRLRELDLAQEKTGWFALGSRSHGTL

[28] = molecular target: Calcium/calmodulin-dependent protein kinase type 1D (Homo sapiens) (UniProt Q8IU85); assay: Inhibition of human CAMK1D assessed as residual activity at 1 uM using RBER-CHKtide as substrate in presence of 33P-ATP by ProQinase assay relative to control

O=C1c2ccc(Nc3ccc(F)cc3F)cc2CCc2ccc(OC[C@H](O)CO)cc21 [Skepinone-L] gave an Activity [1] of 97%, an Activity [2] of 97% and an Activity [3] of 100%. The Activity [4] was 100%, the Activity [5] was 100% and the Activity [6] was 99%. It also gave an Activity [7] of 100%, an Activity [8] of 120% and an Activity [9] of 77%. For the same molecule, the Activity [10] was 98%, the Activity [11] was 98% and the Activity [12] was 93%. It also gave an Activity [13] of 106%, an Activity [14] of 91% and an Activity [15] of 53%. It also gave an Activity [16] of 100%, an Activity [17] of 100% and an Activity [18] of 92%. The Activity [19] was 94%, the Activity [20] was 94% and the Activity [21] was 89%. For the same molecule, the Activity [22] was 77%, the Activity [23] was 95% and the Activity [24] was 92%. The Activity [25] was 100%, the Activity [26] was 100% and the Activity [27] was 100%. The Activity [28] was 106%.

— ChEMBL document CHEMBL5696441 (Nat Chem Biol, 2011)
